Laboratory results as given in patent EP4818324A1, “BIOLOGICAL METHOD FOR PREPARING 1,2-PROPANEDIOL” (Tianjin University, priority 2023, dated 2025).

How the values were obtained:
[1] = system: Lactiplantibacillus plantarum 1,5-anhydroglucitol-6-phosphate isomerase LpYbiW (Uniprot A0A807DR53), SEQ ID NO: 2; assay: Michaelis-Menten kinetics of LpYbiW, coupled with LpFsaA and EcGldA, NADH consumption at A340nm; assay type: biochemical; details: substrate 1,5-anhydroglucitol-6-phosphate at varying concentrations; 100 nM activated LpYbiW, 20 mM Tris/HCl pH 7.5, 100 mM KCl, 0.4 mM NADH, glove box
Procedure: The Michaelis-Menten kinetic parameters of LpYbiW were determined by coupling with LpFsaA and EcGldA. The reaction rate of LpYbiW was monitored by measuring NADH consumption at A340nm. The absorbance change of the reaction system at 340 nm was measured every 5 seconds using the cuvette mode of an ultra-micro UV-visible spectrophotometer (Nanophotometer) in a glove box (1 cm light path). These reaction systems consisted of 100 nM activated LpYbiW, 20 mM Tris/HCl, (pH 7.5), 100 mM KCl, 1,5-anhydroglucitol-6-phosphate with varying concentrations, 5 µM LpFsaA, 5 µM EcGldA, and 0.4 mM NADH.

[2] = target: T1, Escherichia coli strain K12 1,5-anhydromannitol-6-phosphate isomerase EcPflD (Uniprot P32674), SEQ ID NO: 98 (Escherichia coli, UniProt P32674); assay: Michaelis-Menten kinetics of EcPflD, coupled with EcFsaB and EcGldA, decrease in A340nm; assay type: biochemical; details: substrate 1,5-AM-6P at various concentrations; 40 nM activated EcPflD, 20 mM Tris/HCl pH 7.5, 100 mM KCl, 0.4 mM NADH, glove box
T1 sequence (P32674 1-765): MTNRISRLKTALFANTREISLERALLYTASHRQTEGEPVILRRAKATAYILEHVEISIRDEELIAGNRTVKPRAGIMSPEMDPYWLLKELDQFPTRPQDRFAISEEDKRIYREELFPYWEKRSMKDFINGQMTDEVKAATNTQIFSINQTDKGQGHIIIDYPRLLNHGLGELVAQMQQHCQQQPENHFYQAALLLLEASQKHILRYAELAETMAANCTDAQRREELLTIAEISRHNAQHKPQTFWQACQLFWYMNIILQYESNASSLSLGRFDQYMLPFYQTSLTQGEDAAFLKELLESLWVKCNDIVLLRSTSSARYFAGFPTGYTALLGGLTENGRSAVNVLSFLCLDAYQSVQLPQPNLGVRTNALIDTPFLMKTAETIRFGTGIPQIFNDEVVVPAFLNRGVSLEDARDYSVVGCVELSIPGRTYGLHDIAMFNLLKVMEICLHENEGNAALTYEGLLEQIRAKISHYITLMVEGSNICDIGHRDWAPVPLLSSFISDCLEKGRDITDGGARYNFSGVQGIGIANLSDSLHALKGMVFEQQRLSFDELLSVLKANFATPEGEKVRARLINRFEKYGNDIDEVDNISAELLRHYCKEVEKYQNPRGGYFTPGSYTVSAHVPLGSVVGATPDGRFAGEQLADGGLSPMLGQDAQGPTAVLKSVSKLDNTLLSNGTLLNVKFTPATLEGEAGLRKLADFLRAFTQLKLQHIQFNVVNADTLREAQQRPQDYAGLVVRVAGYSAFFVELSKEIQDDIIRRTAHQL
Procedure: The reaction system containing 20 mM Tris/HCl, (pH 7.5), 100 mM KCl, 40 nM activated EcPflD and 1,5-AM-6P with various substrate concentrations, 2 µM EcFsaB, 2 µM EcGldA, and 0.4 mM NADH was measured using a cuvette mode of an ultra-micro UV-Vis spectrophotometer (Hangzhou Miu Instruments Co., Ltd.) in a 1 cm Eppendorf cuvette inside a glove box. The decrease in A340nm was monitored at 5-second intervals.

Row | Compound | Km [1] | kcat [1] | Km [2] | kcat [2]
1 | O=P(O)(O)OC[C@H]1OC[C@H](O)[C@@H](O)[C@@H]1O [1,5-AG-6P, 1,5-anhydroglucitol-6-phosphate] | 36.5 ± 6.66 mM | 43.38 ± 2.96 s^-1/LpYbiW |  | 
2 | O=P(O)(O)OC[C@H]1OC[C@@H](O)[C@@H](O)[C@@H]1O [1,5-AM-6P, 1,5-anhydromannitol-6-phosphate] |  |  | 1.33 ± 0.12 mM | 33.47 ± 0.79 s^-1/EcPflD
